# Measured values published in ChEMBL document CHEMBL1129177, “Novel analogs of cyclic-ADP-ribose: 9-Cyclic etheno-ADP-ribose and cyclic etheno-CDP-ribose” (Bioorg Med Chem Lett, 1996).
# Organism: Rattus norvegicus
# Assay: Dose response for [Ca2+] release from rat brain microsomes was determined
# Assay type: functional
row,EC50,SMILES
1,8 µM,O=P1([O-])OC[C@H]2OC([C@H](O)[C@@H]2O)[n+]2ccn3cnc4c(ncn4C4O[C@H](COP(=O)(O)O1)[C@@H](O)[C@H]4O)c32
2,22 µM,Nc1c2ncn3c2nc[n+]1[C@@H]1O[C@H](COP(=O)([O-])OP(=O)(O)OC[C@H]2O[C@@H]3[C@H](O)[C@@H]2O)[C@@H](O)[C@H]1O
3,0.09 µM,"O=P(O)(O)O[C@@H]1[C@H](O)[C@H](O)[C@@H](OP(=O)(O)O)[C@H](OP(=O)(O)O)[C@H]1O [INS(1,4,5)P3]"
